Test results taken from PubChem BioAssay (NCI).
Converted amounts (≈) assume the structure as drawn.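 Test compounds were applied to cells in 96-well plates for 48 hours at 5 doses. Abbreviation: GI50, concentration required for 50% inhibition of growth. TGI: concentration producing complete growth inhibition.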

Columns and labels:
Assay in all cases: DTP human tumour cell line panel, 48 h
MALME-3M melanoma = system: MALME-3M melanoma
K-562 leukemia = system: K-562 leukemia
SK-MEL-2 melanoma = system: SK-MEL-2 melanoma
HCC-2998 colon = system: HCC-2998 colon
UACC-257 melanoma = system: UACC-257 melanoma
HCT-116 colon = system: HCT-116 colon
NCI-H23 lung = system: NCI-H23 lung
MCF7 breast = system: MCF7 breast
RXF 393 renal = system: RXF 393 renal
KM12 colon = system: KM12 colon
RPMI-8226 leukemia = system: RPMI-8226 leukemia
NCI-H226 lung = system: NCI-H226 lung
HL-60(TB) leukemia = system: HL-60(TB) leukemia

| SMILES | TGI (MALME-3M melanoma) | TGI (K-562 leukemia) | TGI (SK-MEL-2 melanoma) | TGI (HCC-2998 colon) | TGI (UACC-257 melanoma) | TGI (HCT-116 colon) | TGI (NCI-H23 lung) | TGI (MCF7 breast) | TGI (RXF 393 renal) | TGI (KM12 colon) | TGI (RPMI-8226 leukemia) | TGI (NCI-H226 lung) | TGI (HL-60(TB) leukemia) | GI50 (MALME-3M melanoma) | GI50 (SK-MEL-2 melanoma) | GI50 (HCC-2998 colon) | GI50 (HCT-116 colon) | GI50 (NCI-H23 lung) | GI50 (MCF7 breast) | GI50 (KM12 colon) |
| --- | --- | --- | --- | --- | --- | --- | --- | --- | --- | --- | --- | --- | --- | --- | --- | --- | --- | --- | --- | --- |
| Cc1cc(O)c2c(c1)C(=O)c1c(c(O)cc(O)c1-c1c(O)cc(O)c3c1C(=O)c1cc(C)cc(O)c1C3=O)C2=O | 65.2 µM | 55.6 µM | 40.7 µM | 35.2 µM | 50 µM | 33.7 µM | 50.8 µM | 48.8 µM | 76.5 µM | 64.2 µM | 32.9 µM | 50 µM | 18.6 µM | – | – | – | – | – | – | – |
| CC1(C)OCC(CO)(CO)CO1 | – | > 100 µM | – | > 100 µM | > 100 µM | > 100 µM | > 100 µM | > 100 µM | > 100 µM | > 100 µM | – | > 100 µM | > 100 µM | – | – | – | – | – | – | – |
| Cc1nc2nc(C)n(CCN3CCOCC3)c(=O)c2c(-c2cccc([N+](=O)[O-])c2)c1C(=O)CCCCCCCCCCN1CCC(c2ccccc2)(c2ccccc2)CC1 | 4.22 µg/mL | – | 4.76 µg/mL | 4.56 µg/mL | – | 3.45 µg/mL | 3.71 µg/mL | 3.65 µg/mL | – | 4.46 µg/mL | – | – | – | 2.24 µg/mL (≈ 2.75 µM) | 2.55 µg/mL (≈ 3.14 µM) | 2.37 µg/mL (≈ 2.91 µM) | 1.63 µg/mL (≈ 2 µM) | 1.81 µg/mL (≈ 2.22 µM) | 1.67 µg/mL (≈ 2.06 µM) | 2.43 µg/mL (≈ 2.99 µM) |
| ICC1CCCO1 (stereo not given) | > 100 µM | – | > 100 µM | > 100 µM | > 100 µM | > 100 µM | > 100 µM | – | > 100 µM | > 100 µM | > 100 µM | > 100 µM | > 100 µM | – | – | – | – | – | – | – |
| CCOP(=O)(C/C=C/Cn1ncc(=O)[nH]c1=O)OCC | > 100 µM | > 100 µM | > 100 µM | > 100 µM | > 100 µM | – | – | > 100 µM | > 100 µM | > 100 µM | > 100 µM | > 100 µM | > 100 µM | – | – | – | – | – | – | – |
| O=C=C=P(c1ccccc1)(c1ccccc1)c1ccccc1 | > 100 µM | > 100 µM | > 100 µM | > 100 µM | > 100 µM | > 100 µM | > 100 µM | – | > 100 µM | > 100 µM | > 100 µM | > 100 µM | 92.4 µM | – | – | – | – | – | – | – |
| CC(C)c1oc(=O)cc2c1C(O)C1OC(=O)C3(C)C(O)C4OC4C2(C)C13 (stereo not given) | 10 µM | 6.63 µM | 7.71 µM | 7.92 µM | 10.8 µM | 9.99 µM | 7.63 µM | 5.23 µM | 6.8 µM | 24.9 µM | 4.1 µM | 19.3 µM | 1.22 µM | – | – | – | – | – | – | – |
| C=C1CC(OC)(C(OC)C(=O)N[C@H]2OCO[C@H]3C2O[C@H](C[C@@H](COC)OC)C(C)(C)C3OC)O[C@H](C)[C@@H]1C (stereo not given in full) | – | 3.38 µM | 14.9 µM | – | 14.7 µM | 5.77 µM | 6.68 µM | > 47 µM | 5.38 µM | > 47 µM | 0.917 µM | 7.73 µM | 1.33 µM | – | – | – | – | – | – | – |
